Assay results from patent US9932349B2 (priority 2000, dated 2018).

Columns and labels:
μ opioid receptor = μ opioid receptor (Cavia porcellus, UniProt A0ACM8Q262); type: binding, guinea pig; details: read-out: [3H] DAMGO (μ)
mice = assay: mouse acetic acid writhing test (antinociceptive activity); type: in vivo

Chain of μ opioid receptor (A0ACM8Q262 1-400): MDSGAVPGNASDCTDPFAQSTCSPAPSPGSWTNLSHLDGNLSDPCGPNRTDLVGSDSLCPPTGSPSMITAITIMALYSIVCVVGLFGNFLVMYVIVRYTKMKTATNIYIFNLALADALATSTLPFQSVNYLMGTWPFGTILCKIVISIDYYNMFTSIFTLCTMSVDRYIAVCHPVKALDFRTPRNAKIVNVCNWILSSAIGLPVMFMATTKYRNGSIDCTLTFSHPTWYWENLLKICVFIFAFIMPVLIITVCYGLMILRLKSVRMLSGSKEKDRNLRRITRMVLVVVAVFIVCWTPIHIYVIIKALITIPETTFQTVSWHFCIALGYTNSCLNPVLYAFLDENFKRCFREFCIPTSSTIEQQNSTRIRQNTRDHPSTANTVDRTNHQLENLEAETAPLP

In the case of “Cyclazocine [(±)-Cyclazocine, reference compound]”, the Ki (μ opioid receptor) is reported as 0.32 ± 0.02 nM, the “duration of action (antinociception, mouse writhing test)” value (mice; 1.0 mg/kg i.p.) is reported as “ca. 2 hr” and the “ED50 in the mouse acetic acid writhing test” value (mice; administered i.c.v.) is reported as 2.9 nmol.
